{"source": "paper PMC3992874", "about": "(Journal of nuclear medicine : official publication, Society …, 2013)", "key": {"[1]": {"test_system": "LP9 mesothelial cells", "assay": "Viability of carboplatin-treated LP9 mesothelial cells", "format": "cell-based, human", "settings": "increasing concentrations up to 1 μg/ml, 24 hours, data not shown"}, "[2]": {"settings": "patients; cited from earlier work"}, "[3]": {"test_system": "VCAM-1 expression, SKOV3ip1 (platinum resistant) tumors", "format": "in vivo, mouse", "settings": "SKOV3ip1 mice, single IP 25 mg/kg; 111In-tVCAM-4 omentum biodistribution; n=3"}, "[4]": {"test_system": "VCAM-1", "settings": "previous work; cited from earlier work"}}, "data": [{"compound": "N.N.O=C([O-])C1(C(=O)[O-])CCC1.[Pt+2]", "note": "[carboplatin]", "values": [{"measurement": "effect on cell viability", "setting": "[1]", "result": "None of the concentrations tested altered"}, {"measurement": "injected dose excreted within 24 hours", "setting": "[2]", "result": "up to 80%"}, {"measurement": "VCAM-1 expression above baseline 2 days after treatment", "setting": "[3]", "result": 50, "unit": "%"}]}, {"compound": "(βAKTLLPTPGGS(PEG5000))KKKDOTAβA-NH2 [tVCAM-4]", "values": [{"measurement": "affinity for VCAM-1", "setting": "[4]", "result": "high affinity"}]}]}
